Assay results taken from patent US8952024B2, “Herbicidal pyrimidone derivatives” (E I du Pont de Nemours and Company, priority 2009, dated 2015).

What was measured:
Format in all cases: in vivo
rice (Oryza sativa) = assay: Test B flooded paddy test; conditions: for Plant response rating, Flood, Rice: 250 g ai/ha, flooded paddy test, visual rating on 0 to 100 scale (0 no effect, 100 complete control) after 13 to 15 days; for Plant response rating, Rice: Flood (flooded paddy test), 13 to 15 days; for Rice plant response rating: Flood, 31 g ai/ha, scale 0 to 100 (0 no effect, 100 complete control)
In short: (§1)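 2-leaf seedlings; pots flooded 3 cm over soil at treatment; cpd dosed into floodwater, depth kept constant. Greenhouse 13–15 d. Visual rating vs untreated controls, 0 = no effect, 100 = complete control.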

[1] = system: barnyardgrass (Echinochloa crus-galli); assay: Test B flooded paddy test; conditions: for Plant response rating, Flood, Barnyardgrass: 250 g ai/ha, flooded paddy test, visual rating on 0 to 100 scale (0 no effect, 100 complete control) after 13 to 15 days; for Plant response rating, Barnyardgrass: Flood (flooded paddy test), 13 to 15 days; for Barnyardgrass plant response rating: Flood, 31 g ai/ha, scale 0 to 100 (0 no effect, 100 complete control)
In short: as §1

[2] = system: umbrella sedge (Cyperus difformis); assay: Test B flooded paddy test; conditions: for Plant response rating, Flood, Sedge, Umbrella: 250 g ai/ha, flooded paddy test, visual rating on 0 to 100 scale (0 no effect, 100 complete control) after 13 to 15 days; for Plant response rating, Sedge, Umbrella: Flood (flooded paddy test), 13 to 15 days; for Sedge, Umbrella plant response rating: Flood, 31 g ai/ha, scale 0 to 100 (0 no effect, 100 complete control)
In short: as §1

[3] = system: ducksalad (Heteranthera limosa); assay: Test B flooded paddy test; conditions: for Plant response rating, Flood, Ducksalad: 250 g ai/ha, flooded paddy test, visual rating on 0 to 100 scale (0 no effect, 100 complete control) after 13 to 15 days; for Plant response rating, Ducksalad: Flood (flooded paddy test), 13 to 15 days; for Ducksalad plant response rating: Flood, 31 g ai/ha, scale 0 to 100 (0 no effect, 100 complete control)
In short: as §1

[4] = system: winter barley (Hordeum vulgare); assay: Test B postemergence plant response; conditions: Postemergence
In short: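 Visual ratings from 0 (no effect) to 100 (complete control), made against controls 13–15 days after treatment, kept in a greenhouse. Compounds were applied postemergence to potted plants at the 1- to 4-leaf stage (2–18 cm).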

[5] = system: giant foxtail (Setaria faberii); assay: Test A pre-/postemergence plant response; conditions: for Foxtail, Giant plant response rating: visual injury, 0 to 100 scale (0 no effect, 100 complete control), approx. ten days
In short: (§2)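 Approximately ten days after concurrent pre- and postemergence spraying in a greenhouse, plants were compared with untreated controls and rated visually for injury, 0 = no effect to 100 = complete control. Preemergence spray was directed onto loam/sand soil; postemergence targeted 1–2 leaf seedlings.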

[6] = system: barnyardgrass (Echinochloa crus-galli); assay: Test A pre-/postemergence plant response; conditions: for Barnyardgrass plant response rating: visual injury, 0 to 100 scale (0 no effect, 100 complete control), approx. ten days
In short: as §2

[7] = system: velvetleaf (Abutilon theophrasti); assay: Test A pre-/postemergence plant response; conditions: for Velvetleaf plant response rating: visual injury, 0 to 100 scale (0 no effect, 100 complete control), approx. ten days
In short: as §2

[8] = system: morningglory (Ipomoea spp.); assay: Test A pre-/postemergence plant response; conditions: for Morningglory plant response rating: visual injury, 0 to 100 scale (0 no effect, 100 complete control), approx. ten days
In short: as §2

corn (Zea mays) = assay: Test A pre-/postemergence plant response; conditions: for Corn plant response rating: visual injury, 0 to 100 scale (0 no effect, 100 complete control), approx. ten days
In short: as §2

[9] = system: pigweed (Amaranthus retroflexus); assay: Test A pre-/postemergence plant response; conditions: for Pigweed plant response rating: visual injury, 0 to 100 scale (0 no effect, 100 complete control), approx. ten days
In short: as §2

[10] = system: wheat (Triticum aestivum); assay: Test A pre-/postemergence plant response; conditions: for Wheat plant response rating: visual injury, 0 to 100 scale (0 no effect, 100 complete control), approx. ten days
In short: as §2

[11] = system: large crabgrass (Digitaria sanguinalis); assay: Test A pre-/postemergence plant response; conditions: for Crabgrass, Large plant response rating: visual injury, 0 to 100 scale (0 no effect, 100 complete control), approx. ten days
In short: as §2

[12] = 62 g ai/ha, scale of 0 to 100 where 0 is no effect and 100 is complete control
[13] = 125 g ai/ha, scale 0 to 100, 0 is no effect, 100 is complete control
[14] = 31 g ai/ha, 0 to 100 scale (0 no effect, 100 complete control)
[15] = 62 g ai/ha, scale 0 to 100 (0 no effect, 100 complete control)
[16] = 125 g ai/ha, scale 0 (no effect) to 100 (complete control), 13 to 15 days
[17] = 250 g ai/ha, scale 0 to 100 (0 no effect, 100 complete control), 13 to 15 days
[18] = Postemergence, 125 g ai/ha, 0 to 100 scale where 0 is no effect and 100 is complete control
[19] = Preemergence, 125 g ai/ha, 0 to 100 scale, 0 = no effect, 100 = complete control
[20] = Preemergence, 500 g ai/ha, 0 to 100 scale, 0 = no effect, 100 = complete control

COCCCn1c(-c2cccc(F)c2)ncc(C(=O)C2=C(O)C3CCC(C3)C2=O)c1=O (stereo not shown) [Compound 238]
70: Plant response rating, Barnyardgrass [6, 19]
50: Plant response rating, Foxtail, Giant [5, 19] | Plant response rating, Corn (corn (Zea mays); [20]) | Plant response rating, Wheat [10, 18]
35: Plant response rating, Barley [4, 16]
80: Plant response rating, Flood, Sedge, Umbrella [2] | Plant response rating, Ducksalad [3, 13] | Corn plant response rating (corn (Zea mays); Postemergence, 500 g ai/ha) | Wheat plant response rating ([10]; Postemergence, 500 g ai/ha)
90: Plant response rating, Foxtail, Giant [5, 18] | Plant response rating, Foxtail, Giant [5, 20] | Plant response rating, Velvetleaf [7, 19] | Plant response rating, Morningglory [8, 20] | Plant response rating, Crabgrass, Large [11, 18] | Plant response rating, Crabgrass, Large [11, 19]
0: Plant response rating, Flood, Rice (rice (Oryza sativa)) | Plant response rating, Rice (rice (Oryza sativa); [12]) | Plant response rating, Rice (rice (Oryza sativa); [13]) | Rice plant response rating (rice (Oryza sativa)) | Plant response rating, Barnyardgrass [1, 12] | Barnyardgrass plant response rating [1] | Plant response rating, Sedge, Umbrella [2, 12] | Sedge, Umbrella plant response rating [2] | Ducksalad plant response rating [3] | Plant response rating, Corn (corn (Zea mays); [19]) | Plant response rating, Wheat [10, 19]
10: Plant response rating, Barley [4, 14]
100: Plant response rating, Flood, Ducksalad [3] | Foxtail, Giant plant response rating ([5]; Postemergence, 500 g ai/ha) | Plant response rating, Barnyardgrass [6, 18] | Barnyardgrass plant response rating ([6]; Postemergence, 500 g ai/ha) | Plant response rating, Barnyardgrass [6, 20] | Plant response rating, Velvetleaf [7, 18] | Velvetleaf plant response rating ([7]; Postemergence, 500 g ai/ha) | Plant response rating, Velvetleaf [7, 20] | Plant response rating, Morningglory [8, 18] | Morningglory plant response rating ([8]; Postemergence, 500 g ai/ha) | Plant response rating, Pigweed [9, 18] | Pigweed plant response rating ([9]; Postemergence, 500 g ai/ha) | Plant response rating, Pigweed [9, 19] | Plant response rating, Pigweed [9, 20] | Crabgrass, Large plant response rating ([11]; Postemergence, 500 g ai/ha) | Plant response rating, Crabgrass, Large [11, 20]
40: Plant response rating, Flood, Barnyardgrass [1] | Plant response rating, Ducksalad [3, 12] | Plant response rating, Barley [4, 17] | Plant response rating, Morningglory [8, 19] | Plant response rating, Corn (corn (Zea mays); [18]) | Plant response rating, Wheat [10, 20]
65: Plant response rating, Sedge, Umbrella [2, 13]
30: Plant response rating, Barnyardgrass [1, 13] | Plant response rating, Barley [4, 15]

CCn1c(-c2ccccc2)ncc(C(=O)C2=C(O)C3CCC(C3)C2=O)c1=O (stereo not shown) [Compound 239]
50: Plant response rating, Morningglory [8, 20]
100: Plant response rating, Velvetleaf [7, 18] | Velvetleaf plant response rating ([7]; Postemergence, 500 g ai/ha) | Plant response rating, Velvetleaf [7, 20] | Plant response rating, Morningglory [8, 18] | Morningglory plant response rating ([8]; Postemergence, 500 g ai/ha) | Plant response rating, Pigweed [9, 20] | Plant response rating, Crabgrass, Large [11, 20]
5: Plant response rating, Barley [4, 16] | Plant response rating, Barley [4, 17]
75: Plant response rating, Flood, Sedge, Umbrella [2]
15: Plant response rating, Flood, Barnyardgrass [1]
80: Plant response rating, Flood, Ducksalad [3] | Foxtail, Giant plant response rating ([5]; Postemergence, 500 g ai/ha) | Plant response rating, Barnyardgrass [6, 20] | Plant response rating, Velvetleaf [7, 19] | Plant response rating, Pigweed [9, 18] | Plant response rating, Crabgrass, Large [11, 18]
20: Plant response rating, Foxtail, Giant [5, 19] | Plant response rating, Barnyardgrass [6, 19]
40: Plant response rating, Sedge, Umbrella [2, 13]
90: Plant response rating, Barnyardgrass [6, 18] | Barnyardgrass plant response rating ([6]; Postemergence, 500 g ai/ha) | Pigweed plant response rating ([9]; Postemergence, 500 g ai/ha) | Crabgrass, Large plant response rating ([11]; Postemergence, 500 g ai/ha)
30: Plant response rating, Corn (corn (Zea mays); [18]) | Corn plant response rating (corn (Zea mays); Postemergence, 500 g ai/ha) | Plant response rating, Wheat [10, 20]
70: Plant response rating, Ducksalad [3, 13] | Plant response rating, Foxtail, Giant [5, 18] | Plant response rating, Foxtail, Giant [5, 20] | Plant response rating, Pigweed [9, 19] | Plant response rating, Crabgrass, Large [11, 19]
0: Plant response rating, Flood, Rice (rice (Oryza sativa)) | Plant response rating, Rice (rice (Oryza sativa); [12]) | Plant response rating, Rice (rice (Oryza sativa); [13]) | Rice plant response rating (rice (Oryza sativa)) | Plant response rating, Barnyardgrass [1, 12] | Plant response rating, Barnyardgrass [1, 13] | Barnyardgrass plant response rating [1] | Plant response rating, Sedge, Umbrella [2, 12] | Sedge, Umbrella plant response rating [2] | Plant response rating, Ducksalad [3, 12] | Ducksalad plant response rating [3] | Plant response rating, Barley [4, 14] | Plant response rating, Barley [4, 15] | Plant response rating, Corn (corn (Zea mays); [19]) | Plant response rating, Corn (corn (Zea mays); [20]) | Plant response rating, Wheat [10, 18] | Wheat plant response rating ([10]; Postemergence, 500 g ai/ha) | Plant response rating, Wheat [10, 19]
